Results taken from ChEMBL document CHEMBL2401680, “A highly catalytically active γ-carbonic anhydrase from the pathogenic anaerobe Porphyromonas gingivalis and its inhibition profile with anions and small molecules” (Bioorg Med Chem Lett, 2013).

Assays:
[1] = Inhibition of Porphyromonas gingivalis recombinant CA by CO2 hydration assay
Carbonic anhydrase = target: T1, Carbonic anhydrase (Methanosarcina thermophila, UniProt P40881); assay: Inhibition of Methanosarcina thermophila recombinant gamma-CA by CO2 hydration assay
T1 sequence (P40881 whole entry): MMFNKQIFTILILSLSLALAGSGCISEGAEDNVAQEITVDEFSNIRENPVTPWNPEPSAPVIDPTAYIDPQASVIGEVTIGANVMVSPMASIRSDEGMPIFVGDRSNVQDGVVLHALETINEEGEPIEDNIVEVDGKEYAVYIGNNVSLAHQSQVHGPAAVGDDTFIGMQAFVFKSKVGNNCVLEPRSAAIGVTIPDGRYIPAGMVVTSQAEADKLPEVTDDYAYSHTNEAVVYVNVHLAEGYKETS

SMILES | Ki [1] | Ki (Carbonic anhydrase)
CCN(CC)C(=S)S [DITIOCARB SODIUM] | 0.004 mM | 
O=[As](O)(O)c1ccccc1 [PHENYLARSONIC ACID] | 0.09 mM | 
OB(O)c1ccccc1 [PHENYLBORONIC ACID] | 0.0098 mM | 
[N-]=[N+]=[N-] [SODIUM AZIDE] | 0.073 mM | 
O=C([O-])O.[Na+] [SODIUM BICARBONATE] | 0.96 mM | 42 mM
O=S([O-])O.[Na+] [SODIUM BISULFITE] | 9.3 mM | 11.7 mM
[Br-].[Na+] [SODIUM BROMIDE] | 0.92 mM | 60 mM
O=C([O-])[O-].[Na+].[Na+] [SODIUM CARBONATE] | 0.89 mM | 6.7 mM
S=C(S)S [SODIUM CARBONOTRITHIOATE] | 0.097 mM | 
[Cl-].[Na+] [SODIUM CHLORIDE] | 0.94 mM | > 200 mM
[F-].[Na+] [SODIUM FLUORIDE] | 0.95 mM | 
S [SODIUM HYDROSULFIDE] | 0.092 mM | 
O=S(=O)(O)ONOS(=O)(=O)O [SODIUM IMINODISULFATE] | 7.7 mM | 
[I-].[Na+] [SODIUM IODIDE] | 8.7 mM | 160 mM
N=C=[Se] [SODIUM ISOSELENOCYANATE] | 0.91 mM | 
N=C=S [SODIUM ISOTHIOCYANATE] | 0.093 mM | 7 mM
O=[N+]([O-])[O-].[Na+] [SODIUM NITRATE] | 8.5 mM | 36.5 mM
O=NO [SODIUM NITRITE] | 3.1 mM | 
[O-][Cl+3]([O-])([O-])O [SODIUM PERCHLORATE] | > 200 mM | 
O=S(=O)(O)OOS(=O)(=O)O [SODIUM PERSULFATE] | 8.7 mM | 
O=[Se](=O)(O)O [SODIUM SELENATE] | 85.5 mM | 
O=S(=O)([O-])[O-].[Na+].[Na+] [SODIUM SULFATE ANHYDROUS] | 8.7 mM | > 200 mM
O=[Te](=O)(O)O [SODIUM TELLURATE] | 16.7 mM | 
O=BOB(O)OB(O)OB=O [SODIUM TETRABORATE] | 71.6 mM | 
F[B-](F)(F)F.[Na+] [SODIUM TETRAFLUOROBORATE] | > 200 mM | 
NS(=O)(=O)O [SULFAMATE] | 0.093 mM | 
NS(N)(=O)=O [SULFAMIDE] | 0.0092 mM | 
